Data: patent US20110071100A1, “SULFOBETAINES FOR CANCER, OBESITY, MACULAR DEGENERATION, NEURODEGENERATIVE DISEASES” (TILTAN PHARMA LTD., priority 2008, published 2011)

System: malignant (mammary carcinoma) tumor (EMT6/CTX)
Assay: Tumor growth of malignant (mammary carcinoma) tumor (EMT6/CTX) in a mouse experimental model
Type: in vivo, CB6F1 male mice
Conditions: for effect on tumor growth, agent alone: i.p.; for inhibition of tumor growth, alone and in combination with Hamsa treatment (summary of experiments 1-4): SB-18 and CHAPS 40 mg/kg, SB-12 2.5 and 40 mg/kg
Method: In order to determine the effect of SB-18, CHAPS, SB-12, SB-16-4 and SB-18-4 each alone and each in combination with 4 other agents (“Hamsa treatment”), on tumor growth of a malignant (mammary carcinoma) tumor (EMT6/CTX) in a mouse experimental model, six (6) experiments were carried out as described below:
CB6F1 male mice (a cross between Balbc and C57bl) at age of 7-8 weeks were anesthetized with Ketamine:Xelazine in a 0.85:0.15 ratio respectively, and diluted 1:1 with double distilled water (DDW) and injected i.m. in volume of 50 uL.
100 uL of EMT6/CTX cells 3.6×10^5 cells/mouse were injected subcutaneously (s.c.) to the anesthetized mice, after shaving their back (to enable accurate measurement of tumor-volume). The mice were divided into four groups, as outlined below, 6-8 animals in each group. The mice were marked with Picric acid on head (H), tail (T), head and tail (H&T), right leg (RL), left leg (LL), right and left legs (SY), back and blank and were individually monitored.
“Hamsa treatment” as used herein consists of the following active ingredients in the following concentrations: • Cimetidine 60 mg/kg (Farchemia s.r.l. Italy). • Diclofenac 30 mg/kg (Unique Pharma India). • Cyclophosphamide (CTX) 60 mg/kg (Hisun China) • Sulfasalazine (SSZ) (Farchemia s.r.l. Italy)—50 mg/kg on days of cytotoxic treatment, i.e. on days when cyclophosphamide and diclofenac are administered; 150 mg/kg on days of non-cytotoxic treatment, i.e. on days when no cyclophosphamide and disclofenac are administered.
The preparation and administration protocol of the Hamsa treatment is outlined in Table 1:
SB-12, CHAPS and SB-18 (HOPAX Chem. Mfg. Ltd Taiwan) were prepared separately as aqueous solutions, then mixed 1:1 with Vehicle or the cytotoxic or non-cytotoxic stage of the Hamsa treatment and twice the volume was injected i.p. Due to its lower solubility, SB-18 was dissolved by mild warming (˜45° C.) of its aqueous solution in the presence of 2% Solutol HS-15 (BASF-Germany). In groups that received SB-12, CHAPS or SB-18, this agent was injected daily. […]
SB-16-4 was first dissolved in DDW containing 2% Solutol HS-15 with heating to 40° C. to 8 mg/mL concentration. The stock solution was diluted with non-cytotoxic and cytotoxic treatments in 1:1 ratio.
SB-18-4 was first dissolved in DDW containing 4% Solutol HS-15 with heating to 40° C. to 8 mg/mL concentration. The stock solution was diluted with non-cytotoxic and cytotoxic treatments in 1:1 ratio
• 1. 7 mice received vehicle (DDW+2% Solutol—BASF, Germany) • 2. 8 mice received Hamsa treatment • 3. 8 mice received Hamsa treatment in combination with SB-18 (40 mg/kg). • 4. 6 mice received SB-18 in vehicle (40 mg/kg)
• 1. 7 mice received vehicle (DDW+2% Solutol—BASF, Germany) • 2. 8 mice received Hamsa treatment • 3. 7 mice received Hamsa treatment in combination with CHAPS (40 mg/kg). • 4. 7 mice received CHAPS in vehicle (40 mg/kg)
• 1. 7 mice received vehicle (DDW+2% Solutol—BASF, Germany) • 2. 6 mice received Hamsa treatment. • 3. 7 mice received Hamsa treatment with SB-12 (2.5 mg/kg). • 4. 7 mice received SB-12 in vehicle (2.5 mg/kg)
• 1. 7 mice received vehicle (DDW+2% Solutol—BASF, Germany) • 2. 7 mice received Hamsa treatment • 3. 7 mice received Hamsa treatment with SB-12 (40 mg/kg).
• 1. 6 mice received vehicle (DDW+2% Solutol—BASF, Germany) • 2. 6 mice received Hamsa treatment • 3. 7 mice received Hamsa treatment in combination with SB-16-4 (40 mg/kg). • 4. 5 mice received SB-16-4 in vehicle (40 mg/kg)
• 1. 7 mice received vehicle (DDW+2% Solutol—BASF, Germany) • 2. 8 mice received Hamsa treatment • 3. 7 mice received Hamsa treatment in combination with SB-18-4 (40 mg/kg). • 4. 7 mice received SB-18-4 in vehicle (40 mg/kg)
Five (5) or six (6) days after inoculation, when the tumor is already palpable, the treatment was initiated by intraperitoneally (i.p.) injection of the indicated treatment, in a volume of 250 uL, once a day, every day, 6 days a week. […]

[1] = 40 mg/kg i.p. daily + Hamsa treatment (cimetidine, sulfasalazine, diclofenac, cyclophosphamide)
[2] = 40 mg/kg in vehicle, daily, s.c. EMT6/CTX tumor, tumor volume by caliper

Compound	effect on tumor growth in combination with Hamsa treatment [1]	effect on tumor growth, agent alone [2]	inhibition of tumor growth, alone and in combination with Hamsa treatment (summary of experiments 1-4)	effect on tumor growth in combination with Hamsa treatment (2.5 mg/kg i.p. daily + Hamsa treatment (low dose))	effect on tumor growth, agent alone (2.5 mg/kg in vehicle, daily (low dose))
CC(CCC(=O)NCCC[N+](C)(C)CCCS(=O)(=O)[O-])C1CCC2C3C(O)CC4CC(O)CCC4(C)C3CC(O)C12C (centres unmarked) [CHAPS, 3-[3-(Cholamidopropyl)dimethylamonio]-1-propanesulfonate]	has a synergistic effect	has an anti-tumor effect	inhibited tumor growth	–	–
CCCCCCCCCCCC[N+](C)(C)CCCS(=O)(=O)[O-] [SB-12, N-Dodecyl-N,N-Dimethyl-3-Ammonio-1-Propane Sulfonate, reference compound]	compromises the anti-tumor effect of Hamsa treatment	–	did not	slightly compromises the anti-tumor effect of the Hamsa treatment	does not inhibit tumor growth, but rather enhances tumor-growth
CCCCCCCCCCCCCCCC[N+](C)(C)CCCCS(=O)(=O)[O-] [SB-16-4, N,N-Dimethylhexadecyl-ammonium-1-(4-butylsulfonate)]	has a synergistic effect	has an anti-tumor effect	–	–	–
CCCCCCCCCCCCCCCCCC[N+](C)(C)CCCS(=O)(=O)[O-] [SB-18, N-Octadecyl-N,N-Dimethyl-3-Ammonio-1-Propane Sulfonate]	has a synergistic effect	has an anti-tumor effect	inhibited tumor growth	–	–
CCCCCCCCCCCCCCCCCC[N+](C)(C)CCCCS(=O)(=O)[O-] [SB-18-4, N,N-Dimethyloctadecyl-ammonium-1-(4-butylsulfonate)]	has a synergistic effect	has an anti-tumor effect	–	–	–
